Consider one molecule from paper PMC5663395, “Chemical Validation of Methionyl-tRNA Synthetase as a Druggable Target in Leishmania donovani” (ACS Infectious Diseases, 2017).

Read-outs that look alike come from different tables or passages of the source.

Assay [1] relates to L. donovani promastigotes. The assay can be described thus: Leishmania promastigote viability assay. The conditions noted are these: Leishmania donovani. In kind it is cell-based, Leishmania donovani. The procedure:
After suitable sample preparation, the
In vivo Leishmaniasis Animal Model […]
administered twice daily over the same interval.
Parasite load is expressed in Leishman-
Knock-out and overexpressor generation
Leishmania Promastigote Assay
Serum shift experiments were […]
carried out as described above using 5%, 10% and 20% FBS in the media. To examine the effect of the methionine concentration on the potency of DDD806905 parasites were grown in the presence of drug and in the presence (or absence) of 20-fold excess methionine (0.3 g/l). IC50 curve fitting was undertaken in GraFit version 6.0 (Erithacus Software) using a four-parameter logistic dose-response curve (equation 6), with s the slope.
Leishmania Axenic Amastigote Assay
The Leishmania axenic amastigote assay was performed using the method published in Nühs et al 15.
Leishmania Intracellular Amastigote Assay
The intramacrophage Leishmania assay was performed using a modified version of the method described in De Rycker et al 16. […]
amphotericin B was included. Controls were as follows: columns 11 and 12: DMSO, columns 23 and 24: amphotericin B (final concentration 2 µM). 350 nl of compound was pre-dispensed into 384-well sterile intermediary plates. To the intermediary plates, 35 µl of THP-1 media was added and plates were shaken for >5 min to ensure complete mixing. THP-1 cells (8,000 per well, 50 µl) were plated into black clear-bottom 384-well plates (Corning) in presence of 20 nM phorbol 12-myristate 13-

The target in assay [2] is LdMetRS (Leishmania donovani, UniProt A0A3Q8IBX2). The assay can be described thus: LdMetRS biochemical enzyme assay (BIOMOL Green). The method, then: LdMetRS Assay Development and Kinetic Parameter Determinations
Activity of the LdMetRS enzyme was determined by monitoring levels of pyrophosphate released during the first step of the enzymatic reaction. The pyrophosphate formed was converted to two inorganic phosphate molecules using a pyrophosphatase enzyme and levels of the resulting phosphate molecules measured using the BIOMOL® Green reagent (Enzo Life Sciences) 2.
Following optimization of the assay buffer and determination of the enzyme linearity, 384-well plate based assays were carried out at room temperature in a 50 μl reaction volume containing 30 mM Tris, pH 8.0, 140 mM NaCl, 30 mM KCl, 40 mM MgCl2, 0.01% (v/v) Brij-35, 1 mM DTT, 1 U/ml pyrophosphatase, 50 nM recombinant LdMetRS, and varying concentrations of substrates. Michaelis constants for the ATP and methionine substrates were determined in an end point assay using the above buffer and enzyme conditions. Data were fitted to the modified Michaelis-Menten equations […]
Equation 1 (Hill equation): […]
Equation 2 (High substrate inhibition Michaelis-Menten equation): […]
LdMetRS Inhibitor Studies
All test compounds were solubilized in 100% DMSO to a concentration of 10 mM. To generate IC50 data for the compounds, assay ready plates containing 10-point inhibitor curves (half-log serial dilutions) were prepared using an Echo® 550 (Labcyte).
Following preparation of the inhibitor curves, assays were carried out at room temperature in clear, flat bottom, polystyrene, 384-well plates (Greiner). Each assay was performed in a 50 μl reaction volume containing 30 mM Tris; pH 8.0, 140 mM NaCl, 30 mM KCl, 40 mM MgCl2, 0.01% (v/v) Brij-35, 1 mM DTT, 1 U/ml pyrophosphatase, 50 nM recombinant LdMetRS, 50 µM methionine and 100 µM […]
Assays were performed by adding 25 μl buffer with enzyme to assay plates (with buffer only added to ‘no enzyme’ control wells) before the reaction was initiated with the addition of a 25 μl mix containing methionine, ATP and pyrophosphatase to all wells. Following a 120 min reaction at room temperature the assay was stopped with the addition of 50 μl BIOMOL® Green. The BIOMOL® Green signal was allowed to develop for 30 min before the absorbance of each well was read at 650 nm using an EnVision multilabel plate reader (PerkinElmer Life Sciences). All liquid dispensing steps were carried out using a Thermo Scientific WellMate dispenser (Matrix).
ActivityBase from IDBS (version 8.0.5.4) was used for data processing and analysis. All IC50 curve fitting was undertaken using ActivityBase XE (version 7.7.1) from IDBS. A four-parameter logistic dose-response curve was utilized with prefit used for all four parameters.
For DDD806905 Kiapp determinations, data fitting to the Morrison equation (equation 3) was carried out using GraFit v6.0 (Erithacus Software). It should be noted that data for fitting to the Morrison equation was normalised to a ‘100 µM DDD806905’ control rather than a ‘no enzyme’ control as […]
Equation 3 (Morrison equation): […]
vi = K1 −−([ ] [ ]ET+IT+Ki)−([ ] [ ]ET+IT+i)[ ] [ ]TIE4T
LdMetRS Mode of Inhibition Studies
To establish the mode of inhibition of DDD806905, data sets (generated using the BIOMOL® Green assay platform previously described) were collected by varying both the inhibitor and substrate concentrations. Using GraFit v6.0 (Erithacus Software) each data set was individually fitted to the Michaelis-Menten equation or the modified high substrate inhibition Michaelis-Menten equation described above (equation 2), and the resulting Lineweaver-Burk plots were examined for diagnostic […]
Data sets were then globally fitted to the appropriate model (with equations 4 and 5 used for […]
If more than one model appeared possible, then data were fitted to both and examined for significance using the F-test function in GraFit.

Chain of LdMetRS (A0A3Q8IBX2 entry or part of it): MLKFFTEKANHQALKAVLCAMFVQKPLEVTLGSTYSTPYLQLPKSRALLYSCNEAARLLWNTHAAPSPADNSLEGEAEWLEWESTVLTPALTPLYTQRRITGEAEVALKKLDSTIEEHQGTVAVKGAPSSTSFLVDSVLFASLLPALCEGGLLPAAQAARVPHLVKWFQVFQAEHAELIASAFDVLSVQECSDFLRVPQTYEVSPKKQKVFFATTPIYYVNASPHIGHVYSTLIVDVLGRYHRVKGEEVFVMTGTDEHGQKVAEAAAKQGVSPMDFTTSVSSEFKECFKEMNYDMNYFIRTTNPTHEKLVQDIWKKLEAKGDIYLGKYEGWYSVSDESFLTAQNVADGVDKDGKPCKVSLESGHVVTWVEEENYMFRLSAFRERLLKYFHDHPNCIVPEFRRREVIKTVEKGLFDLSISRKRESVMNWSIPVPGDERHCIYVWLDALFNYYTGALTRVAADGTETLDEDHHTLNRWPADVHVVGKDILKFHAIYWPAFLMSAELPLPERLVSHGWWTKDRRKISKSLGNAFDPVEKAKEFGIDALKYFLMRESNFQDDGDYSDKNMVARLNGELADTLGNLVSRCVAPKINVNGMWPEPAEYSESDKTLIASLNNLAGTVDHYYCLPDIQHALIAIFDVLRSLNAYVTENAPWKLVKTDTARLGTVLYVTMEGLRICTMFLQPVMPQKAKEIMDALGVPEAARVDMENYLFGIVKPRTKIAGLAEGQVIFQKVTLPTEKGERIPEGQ

For `Cl.Cl.O=c1nc(NCCCNCc2cc3c(Cl)cc(Cl)cc3[nH]2)[nH]c2ccccc12` [DDD806905, 2-((3-(((4,6-dichloro-1H-indol-2-yl)methyl)amino)propyl)amino)quinazolin-4(1H)-one dihydrochloride], the EC50 is 270 nM in assay [1] (10% serum, read-out: promastigote EC50); 440 nM in assay [1] (Supplementary Table 1, read-out: Leishmania Promastigote EC50); 460 nM in assay [1] (absence of excess methionine, read-out: promastigote EC50); 1750 nM in assay [1] (extrapolated to 100% serum, read-out: predicted promastigote EC50); 120 nM in assay [1] (extrapolated to no serum, read-out: predicted promastigote EC50); 1900 nM in assay [1] (presence of excess methionine (2 mM), read-out: promastigote EC50). Besides, the “mode of inhibition with respect to ATP” value in assay [2] is given as “mixed inhibition”. Further, in assay [2], the “mode of inhibition with respect to methionine” value was “competitive inhibition”. The Ki in assay [2] (Ki app (Morrison equation), active enzyme concentration 39 nM as constant) was found to be 41 nM; in assay [2] (Ki, competitive inhibition with respect to methionine, global competitive inhibition model, Ki ± SE), 18 nM; in assay [2] (Ki, mixed inhibition with respect to ATP, mixed inhibition model, Ki ± SE) it was 21 nM. For the same molecule, the half-inhibitory concentration (IC50) was 0.09 µM in assay [2] (LdMetRS IC50 (μM), Table 1); 0.094 µM in assay [2] (LdMetRS IC50, 50 nM LdMetRS, 50 μM methionine, 100 μM ATP); 0.11 µM in assay [2] (LdMetRS IC50, Fig S5A: methionine 50 µM, ATP 500 µM); 0.433 µM in assay [2] (LdMetRS IC50, Fig S5A: methionine 500 µM, ATP 500 µM); 0.098 µM in assay [2] (LdMetRS IC50, Fig S5B: ATP 50 µM, methionine 500 µM); 0.38 µM in assay [2] (LdMetRS IC50, Fig S5B: ATP 500 µM, methionine 500 µM). Moreover, the IC50 in assay [2] (LdMetRS IC50, Fig S5C: methionine and ATP both 50 µM) is 0.037 µM; in assay [2] (LdMetRS IC50, Fig S5C: methionine and ATP both 500 µM), 0.433 µM. Also, the “Ki′ (ATP mode of inhibition study)” value in assay [2] (mixed inhibition model, ATP as variable substrate) is given as 227 ± 23 nM.

As usually defined, the EC50 is the concentration needed to bring the measured effect to its halfway point. Usually IC50 stands for the concentration that gives 50% inhibition. Low readings indicate inhibition by little substance, high ones a need for much substance.
